According to BindingDB's records for doi:10.1016/j.bmcl.2014.09.005 (Rhône-Poulenc Rorer, 2014):
One block for each compound: values may come before it.

Test: Antagonist activity at CRTh2 receptor in human eosinophil assessed as inhibition of PGD2-induced cell shape change

Compound: CCN(Cc1cc(C(F)(F)F)ccc1-n1cc(CC(=O)O)c2cccnc21)C(=O)C1CC1
IC50: 20 nM

Compound: CCN(Cc1cc(C(F)(F)F)ccc1-c1cc(CC(=O)O)cc2cnn(C)c12)C(=O)C1CC1
IC50: 58 nM

Compound: CCN(Cc1cc(C(F)(F)F)ccc1-c1cc(CC(=O)O)cc2cn(C)nc12)C(=O)C1CC1
IC50: 43 nM

Compound: CCN(Cc1cc(C(F)(F)F)ccc1-c1nc(CC(=O)O)c2ccccn12)C(=O)C1CC1
IC50: 94 nM

Compound: CCN(Cc1cc(C(F)(F)F)ccc1-c1cn(CC(=O)O)c2ccccc12)C(=O)C1CC1
IC50: 63 nM

Compounds with a lower IC50, results first:

IC50: 8 nM
Compound: CCN(Cc1cc(C(F)(F)F)ccc1-c1cn(CC(=O)O)c2ccncc12)C(=O)C1CC1

IC50: 14 nM
Compound: CCN(Cc1cc(C(F)(F)F)ccc1-c1cn(CC(=O)O)c2cccnc12)C(=O)C1CC1

IC50: 19 nM
Compound: CCN(Cc1cc(C(F)(F)F)ccc1-c1cc(CC(=O)O)c2ccncn12)C(=O)C1CC1

IC50: 13 nM
Compound: CCN(Cc1cc(C(F)(F)F)ccc1-c1cc(CC(=O)O)ccc1OC)C(=O)C1CC1
